Laboratory results taken from patent US9422239B1, “Dual PPAR-δ PPAR-γ agonists” (Auburn University, priority 2013, dated 2016).
Entries after “also recorded” stand apart in the source; their conditions may differ.

What was measured:
PPARγ (AP2-PPRE) = target: T1, PPARγ (AP2-PPRE) (Homo sapiens, UniProt P37231); experiment: AP2-PPRE luciferase assay in HEK-293 cells; assay type: cell-based
T1 construct: expressed in transfected cells; host or cells: HEK-293
T1 sequence (P37231 1-505): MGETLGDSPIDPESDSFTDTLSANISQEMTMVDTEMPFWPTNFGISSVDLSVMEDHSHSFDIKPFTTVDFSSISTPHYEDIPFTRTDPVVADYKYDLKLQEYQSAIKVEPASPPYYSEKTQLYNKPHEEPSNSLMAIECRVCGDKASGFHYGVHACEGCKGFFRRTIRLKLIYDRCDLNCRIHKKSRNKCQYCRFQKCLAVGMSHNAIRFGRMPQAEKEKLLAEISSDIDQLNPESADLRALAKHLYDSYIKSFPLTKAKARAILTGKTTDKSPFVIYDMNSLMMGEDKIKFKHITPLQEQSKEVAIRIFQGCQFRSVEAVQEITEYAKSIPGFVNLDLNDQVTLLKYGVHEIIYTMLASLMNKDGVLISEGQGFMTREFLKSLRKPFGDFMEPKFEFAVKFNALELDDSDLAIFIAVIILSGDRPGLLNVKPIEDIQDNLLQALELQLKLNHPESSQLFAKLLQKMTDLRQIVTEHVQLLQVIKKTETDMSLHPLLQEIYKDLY
T1 sequence (P19793 1-462 partner): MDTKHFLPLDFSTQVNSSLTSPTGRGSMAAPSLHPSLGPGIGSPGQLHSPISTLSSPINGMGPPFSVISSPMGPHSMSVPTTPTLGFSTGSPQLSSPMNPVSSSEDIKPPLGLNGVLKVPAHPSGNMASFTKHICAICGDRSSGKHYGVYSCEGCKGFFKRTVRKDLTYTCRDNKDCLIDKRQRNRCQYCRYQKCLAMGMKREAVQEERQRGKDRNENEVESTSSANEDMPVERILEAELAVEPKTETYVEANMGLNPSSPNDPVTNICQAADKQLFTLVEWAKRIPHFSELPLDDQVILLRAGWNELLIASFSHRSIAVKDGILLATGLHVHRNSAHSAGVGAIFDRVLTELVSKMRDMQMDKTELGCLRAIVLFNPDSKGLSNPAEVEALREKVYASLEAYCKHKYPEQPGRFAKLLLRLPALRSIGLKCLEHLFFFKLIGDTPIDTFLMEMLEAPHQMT
Description: To validate the specificity of the novel compounds towards activation of PPARγ/δ targets, we tested the compounds capacity to bind to select PPARγ/δ Peroxisome Proliferator Response Elements (PPRE). The PPRE are unique sites located in the promoter region where PPARs bind and transcriptionally activate the target genes. AP2-PPRE is the PPARγ target involved in adipocyte growth and differentiation. PDK4-PPRE is a PPARδ target involved in regulating energy metabolism in the cell. These PPREs were inserted into a PGL3 luciferase vectors containing CMV promoters (ADDGENE) using PCR. These vectors were co-transfected with RXR, PPARγ/PPARδ and p-galactosidase vectors into HEK-293 cells using Lipofectamine 2000 (Invitrogen). Relative light units (RLU) were measured using a Glomax Luminometer (Promega). Data were standardized to p-galactosidase activity using ONPG (Promega).

[1] = tested on: C2C12 skeletal muscle cells; experiment: Mitochondrial biogenesis markers by quantitative RT-PCR; assay type: cell-based; conditions: 4 days
Method: Therefore, to test the effects of the novel compounds on mitochondrial biogenesis, C2C12 skeletal muscle cells were cultured and treated with the novel compounds for 4 days. Changes associated with markers for mitochondrial biogenesis were determined by quantitative real time PCR.

[2] = Heart size (heart weight to body weight ratio); assay type: in vivo; conditions: 10 mg/kg oral daily for 1 month, wild type and db/db mice
Method: Diabetic db/db mice were fed a normal rodent chow diet. […] Mice were then weighed and their hearts were extracted and weighed. The heart weight of the mice compared to the body weight of the mice was then calculated based upon heart weight to body weight ratio.

[3] = Accumulation in the brain after repeated dosing; assay type: in vivo, mice; conditions: 10 mg/kg, after 3 weeks
Method: Thus, a 10 mg/kg dose for 4 weeks can be administered.

H19-7 hippocampal cells = experiment: BDNF, post synaptic markers and spine formation in H19-7 hippocampal cells; assay type: cell-based
Description: As shown in FIGS. 15A & B, reduced BDNF protein and gene expression is observed in db/db hippocampi which helps explain the observation that diabetes attenuates the expression of post synaptic receptor expression levels in db/db mice hippocampi.
As mentioned above, BDNF is known to induce synaptogenesis, spine density, and post synaptic receptor expression in neurons but has been previously shown to be reduced in AD brains.
The novel compounds (e.g., compound 9) have been developed as tools to better study the effects of PPARγ activation in the hippocampus upon cognition in AD.

[4] = tested on: BDNF promoter in primary hippocampal neuronal cells; experiment: BDNF promoter luciferase activity; assay type: cell-based, rat; conditions: dose response curve
Description: Primary hippocampal cells: Rat primary neuron cultures for luciferase assays as well as westerns and all other cell cultured assays are described herein. Rat primary neuron cultures can be generated from embryonic day 18-21 rat embryo (male and female) brains (Sprague Dawley) following known protocols. Briefly, the cortices, together with hippocampi, can be dissected and cells can be dissociated with 0.25% trypsin (Invitrogen), treated with 0.05% DNase I (Roche). To remove alternative cells and RBC's, tissue slurry can be allowed to sediment by gravity for 30 minutes at room temperature. Lower cellular suspension can then be plated on poly-D-lysine-coated dishes in Neurobasal A medium (Invitrogen) with B27 supplement (Invitrogen), penicillin (PAA Laboratories, 100 U/ml), streptomycin (PAA Laboratories, 0.1 mg/ml), and 1 mM L-glutamine (PAA Laboratories). Mitotic inhibitor 5-fluoro-2′-deoxyuridine (Sigma) can be added to the medium (10 μM) at 2 days in vitro (DIV) to remove fibroblast and astrocyte contamination. To test isolation purity for neurons, markers for neurons (MAP2) specificity can be measured by gene and western analysis.
Nine distinct transcriptional initiation sites exist: eight in the 5′ noncoding exon and one preceding coding exon IX, indicating nine different promoters control BDNF transcription sites. […]

[5] = Biodistribution by LC-Mass Spectral analysis; conditions: mice; for concentration at 4 h: mouse, po, 3 mg/kg, 3 mg/kg (table)

- Binding affinity for the AP2-PPRE (PPARγ (AP2-PPRE); luciferase assay, HEK-293 cells, 10 μM): less binding affinity
- Activation of the AP2-PPRE (PPARγ (AP2-PPRE); transcriptional assays): minimally activates
- Accumulation in the brain [3]: accumulate in the brain
- Detection in the brain (crosses the blood brain barrier) ([5]; oral, 4 hours): detected
- concentration at 4 h ([5]; adipose, Concentration): 40.4 ng/mL
- concentration at 4 h ([5]; adipose, Tissue Concentration): 15.2 ng/mL
- concentration at 4 h ([5]; adipose, Tissue Distribution): 3.47 ng/mL
- concentration at 4 h ([5]; blood, Concentration): 144 ng/mL
- concentration at 4 h ([5]; brain, Concentration): 38.7 ng/mL
- concentration at 4 h ([5]; brain, Tissue Concentration): 17.2 ng/mL
- concentration at 4 h ([5]; brain, Tissue Distribution): 2.96 ng/mL
- concentration at 4 h ([5]; heart, Concentration): 22.1 ng/mL
- concentration at 4 h ([5]; heart, Tissue Concentration): 3.19 ng/mL
- concentration at 4 h ([5]; heart, Tissue Distribution): 1.35 ng/mL
- concentration at 4 h ([5]; liver, Concentration): 200 ng/mL
- concentration at 4 h ([5]; liver, Tissue Concentration): 24.8 ng/mL
- concentration at 4 h ([5]; liver, Tissue Distribution): 11.9 ng/mL
Compound: Cc1ccc(CNCCCN(Cc2ccc(C(=O)O)cc2)Cc2cc(C(F)(F)F)cc(C(F)(F)F)c2)cc1 [Compound 9]
- Cytochrome oxidase c 4-2 subunit expression [1]: significantly increased
- Gene expression of mitochondrial markers [1]: increases
- Heart size [2]: lacks increase in heart size; also recorded: decreased heart size
- Post synaptic density marker PSD95 expression (H19-7 hippocampal cells; H19-7 cells, western analysis): increase
- BDNF expression (H19-7 hippocampal cells; H19 cells): increase
- Spine formation (H19-7 hippocampal cells; H19 cells): promotes spine formation
- BDNF promoter activity (luciferase) [4]: inducing
